# Experimental data as given in the NIST ThermoML archive (doi:10.1016/j.jct.2018.02.005).
# Numbers after ± are expanded uncertainties.
# Experiment: refractive index (Na D-line) (dimensionless)
# Conditions: 298.15 K; 100 kPa; Liquid; Standard Abbe refractometry
row,Structure (SMILES),refractive index
1,CCO [ethanol],1.35947 ± 0.00033
2,CO [methanol],1.32655 ± 0.00031
3,CC(C)O [propan-2-ol],1.37503 ± 0.00033
4,O [water],1.33251 ± 0.00031
